The source of these data is patent publication US9828369B2, “Isoquinoline derivatives useful as inhibitors of diacylglyceride O-acyltransferase 2” (Merck Sharp & Dohme Corp., priority 2014, dated 2017).

The target in the test is hDGAT2 (Homo sapiens (Human), UniProt Q96PD7). Briefly: DGAT2 enzymatic activity assay (triolein formation, LC/MS/MS).
Setting [1] is: read-out: IC50 values for inhibition of DGAT2, membrane prep of Sf-9 cells expressing hDGAT2, 25 μM diolein, 10 μM oleoyl-CoA, room temperature, triolein by LC/MS/MS.

pIC50: −log10 of the molar value. Read-outs that look alike come from different tables or passages of the source.

Chain of hDGAT2 (Q96PD7 whole entry): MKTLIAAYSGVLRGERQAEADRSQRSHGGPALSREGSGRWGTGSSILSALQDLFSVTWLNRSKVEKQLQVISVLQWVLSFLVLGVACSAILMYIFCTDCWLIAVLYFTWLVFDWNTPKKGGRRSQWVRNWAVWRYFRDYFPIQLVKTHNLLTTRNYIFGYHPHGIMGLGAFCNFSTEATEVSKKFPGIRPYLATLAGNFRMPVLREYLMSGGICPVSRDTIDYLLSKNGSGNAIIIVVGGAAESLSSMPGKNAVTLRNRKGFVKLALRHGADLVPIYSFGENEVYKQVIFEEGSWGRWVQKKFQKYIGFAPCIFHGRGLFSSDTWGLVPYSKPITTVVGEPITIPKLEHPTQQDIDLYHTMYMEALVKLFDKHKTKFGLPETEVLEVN

A word on the pIC50: it is the negative decadic logarithm of the IC50, by convention in mol/L. For `COc1cccc(-c2ccc(CNC(=O)CCc3nc(-c4ccccc4)no3)c3cnccc23)c1` [Example 30, N-((5-(3-methoxyphenyl)isoquinolin-8-yl)methyl)-3-(3-phenyl-1,2,4-oxadiazol-5-yl)propanamide], the pIC50 under setting [1] is 6.09.

Turning to `N#Cc1cccc(-c2ccc(CNC(=O)[C@@H]3C[C@H]3c3ccccc3)c3cnccc23)c1` (relative stereo) [Example 16, (trans)-N-((5-(3-cyanophenyl)isoquinolin-8-yl)methyl)-2-phenylcyclopropanecarboxamide], the pIC50 under setting [1] is 5.46.

Turning to `COc1cccc(-c2ccc(CNC(=O)C3CC34CCCCC4)c3cnccc23)c1` (stereo not shown) [Example 100, N-((5-(3-methoxyphenyl)isoquinolin-8-yl)methyl)spiro[2.5]octane-1-carboxamide], the pIC50 under setting [1] is 6.61.

For `COc1cccc(-c2ccc(CNC(=O)Nc3ccccc3-c3ccccc3)c3cnccc23)c1` [Example 169, 1-([1,1′-biphenyl]-2-yl)-3-((5-(3-methoxyphenyl)isoquinolin-8-yl)methyl)urea], under setting [1], the pIC50 was 5.15.

Take `COc1cccc(-c2ccc(CNC(=O)C(C)c3ccccc3)c3cnccc23)c1` (stereo not shown) [Example 138, N-((5-(3-methoxyphenyl)isoquinolin-8-yl)methyl)-2-phenylpropanamide]: under setting [1], the pIC50 was 6.53.

As to `COc1cccc(-c2ccc(CNC(=O)c3nn(C)c(=O)c4ccccc34)c3cnccc23)c1` [Example 43, N-((5-(3-methoxyphenyl)isoquinolin-8-yl)methyl)-3-methyl-4-oxo-3,4-dihydrophthalazine-1-carboxamide], the pIC50 under setting [1] was 5.81.

As for `O=C(NCc1ccc(-c2cccc(C(=O)N3CCOCC3)c2)c2ccncc12)Nc1cccc(Cl)c1Cl` [Example 166, 1-(2,3-dichlorophenyl)-3-((5-(3-(morpholine-4-carbonyl)phenyl)isoquinolin-8-yl)methyl)urea], the pIC50 under setting [1] was 5.36.

With `COc1cccc(-c2ccc(CNC(=O)Cc3ccccc3OC(F)(F)F)c3cnccc23)c1` [Example 61, N-((5-(3-methoxyphenyl)isoquinolin-8-yl)methyl)-2-(2-(trifluoromethoxy)phenyl)acetamide], the pIC50 under setting [1] is 6.12.

`CC(C)(C)OC(=O)N1CC=C(c2ccc(CNC(=O)Nc3cccc(Cl)c3Cl)c3cnccc23)CC1` [Example 162, tert-butyl 4-(8-((3-(2,3-dichlorophenyl)ureido)methyl)isoquinolin-5-yl)-5,6-dihydropyridine-1(2H)-carboxylate]: the negative-log IC50 (pIC50) under setting [1] is 5.71.

In the case of `COc1cccc(-c2ccc(CNC(=O)Cc3ccc(C(F)(F)F)cc3)c3cnccc23)c1` [Example 46, N-((5-(3-methoxyphenyl)isoquinolin-8-yl)methyl)-2-(4-(trifluoromethyl)phenyl)acetamide], the pIC50 under setting [1] was 6.50.

As for `COc1cccc(-c2ccc(CNC(=O)Nc3ccc(OC(F)(F)F)cc3)c3cnccc23)c1` [Example 151, 1-((5-(3-methoxyphenyl)isoquinolin-8-yl)methyl)-3-(4-(trifluoromethoxy)phenyl)urea], the negative logarithm of the IC50 (pIC50) under setting [1] was 6.03.

Regarding `COc1cccc(-c2ccc(CNC(=O)c3cc(-c4ccccc4)no3)c3cnccc23)c1` [Example 80, N-((5-(3-methoxyphenyl)isoquinolin-8-yl)methyl)-3-phenylisoxazole-5-carboxamide], under setting [1], the pIC50 was 5.62.

Take `COc1cccc(-c2ccc(CNC(=O)C(c3ccc(C(F)(F)F)cc3)C(C)C)c3cnccc23)c1` (stereo not shown) [Example 125, N-((5-(3-methoxyphenyl)isoquinolin-8-yl)methyl)-3-methyl-2-(4-(trifluoromethyl)phenyl)butanamide]: the pIC50 under setting [1] is 5.61.

As for `COc1cccc(-c2ccc(CNC(=O)c3ccnc(C(F)(F)F)c3)c3cnccc23)c1` [Example 133, N-((5-(3-methoxyphenyl)isoquinolin-8-yl)methyl)-2-(trifluoromethyl)isonicotinamide], the negative logarithm of the IC50 (pIC50) under setting [1] is 6.24.

For the compound `COc1cccc(-c2ccc(CNC(=O)C3CCC(c4ccccc4)=N3)c3cnccc23)c1` (stereo not shown) [Example 96, N-((5-(3-methoxyphenyl)isoquinolin-8-yl)methyl)-5-phenyl-3,4-dihydro-2H-pyrrole-2-carboxamide], under setting [1], the pIC50 was 5.10.

Turning to `CCc1cc(C(=O)NCc2ccc(-c3cccc(OC)c3)c3ccncc23)n(C)n1` [Example 35, 3-ethyl-N-((5-(3-methoxyphenyl)isoquinolin-8-yl)methyl)-1-methyl-1H-pyrazole-5-carboxamide], under setting [1], the pIC50 was 5.46.

`COC(=O)c1cccc(-c2ccc(CNC(=O)c3nccc4ccccc34)c3cnccc23)c1` [Example 11, 8-((isoquinoline-1-carboxamido)methyl)-5-(3-(methoxycarbonyl)phenyl) isoquinolin-2-ium] gave a pIC50 of 6.79.

Regarding `COc1cccc(-c2ccc(CNC(=O)c3noc4c3CCCC4)c3cnccc23)c1` [Example 39, N-((5-(3-methoxyphenyl)isoquinolin-8-yl)methyl)-4,5,6,7-tetrahydrobenzo[d]isoxazole-3-carboxamide], the pIC50 under setting [1] was 5.03.

For `COc1cccc(-c2ccc(CNC(=O)[C@@H]3C[C@@H]3c3ccc(C(F)(F)F)cc3)c3cnccc23)c1` (relative stereo) [Example 144, (cis)-N-((5-(3-methoxyphenyl)isoquinolin-8-yl)methyl)-2-(4-(trifluoromethyl)phenyl) cyclopropanecarboxamide], the pIC50 under setting [1] is 5.59.

Turning to `COc1cccc(-c2ccc(CNC(=O)C3CC3c3ccccc3)c3ccccc23)c1` (stereo not shown) [Example 172, N-((4-(3-methoxyphenyl)naphthalen-1-yl)methyl)-2-phenylcyclopropanecarboxamide], under setting [1], the pIC50 was 6.69.

With `COc1cccc(-c2ccc(CNC(=O)c3cnn(-c4ccccc4)c3)c3cnccc23)c1` [Example 79, N-((5-(3-methoxyphenyl)isoquinolin-8-yl)methyl)-1-phenyl-1H-pyrazole-4-carboxamide], the pIC50 under setting [1] is 5.07.

Consider `COc1cccc(-c2ccc(CNC(=O)C3CCN(c4ccc(C(F)(F)F)cc4)CC3)c3cnccc23)c1` [Example 128, N-((5-(3-methoxyphenyl)isoquinolin-8-yl)methyl)-1-(4-(trifluoromethyl)phenyl)piperidine-4-carboxamide], for which the pIC50 under setting [1] was 6.02.

Turning to `COc1cccc(-c2ccc(CNC(=O)c3ccccc3-n3cnnn3)c3cnccc23)c1` [Example 90, N-((5-(3-methoxyphenyl)isoquinolin-8-yl)methyl)-2-(1H-tetrazol-1-yl)benzamide], under setting [1], the pIC50 was 6.04.

As for `COc1cccc(-c2ccc(CNC(=O)c3cnc(-c4ccccc4)cn3)c3cnccc23)c1` [Example 75, N-((5-(3-methoxyphenyl)isoquinolin-8-yl)methyl)-5-phenylpyrazine-2-carboxamide], the pIC50 under setting [1] was 5.04.

Take `COC(=O)c1ccccc1NC(=O)NCc1ccc(-c2cccc(OC)c2)c2ccncc12` [Example 153, methyl 2-(3-((5-(3-methoxyphenyl)isoquinolin-8-yl)methyl)ureido)benzoate]: the pIC50 under setting [1] is 5.96.

On to `COc1cccc(-c2ccc(CNC(=O)c3cnco3)c3cnccc23)c1` [Example 37, N-((5-(3-methoxyphenyl)isoquinolin-8-yl)methyl)oxazole-5-carboxamide], for which the pIC50 under setting [1] was 5.90.

For the compound `CC(C)OC(=O)c1cccc(-c2ccc(CNC(=O)C3CC3c3ccccc3)c3cnccc23)c1` (stereo not shown) [Example 20, isopropyl 3-(8-((2-phenylcyclopropanecarboxamido)methyl)isoquinolin-5-yl)benzoate], the pIC50 under setting [1] was 5.73.

Turning to `COc1cccc(-c2ccc(CNC(=O)c3cccc(-n4cnnn4)c3)c3cnccc23)c1` [Example 91, N-((5-(3-methoxyphenyl)isoquinolin-8-yl)methyl)-3-(1H-tetrazol-1-yl)benzamide], the pIC50 under setting [1] was 6.05.

For `COc1cccc(-c2ccc(CNC(=O)c3cncc(Br)c3)c3cnccc23)c1` [Example 28, 5-bromo-N-((5-(3-methoxyphenyl)isoquinolin-8-yl)methyl)nicotinamide], the pIC50 under setting [1] was 5.41.

The compound `CC[C@H](C(=O)NCc1ccc(-c2cccc(OC)c2)c2ccncc12)c1ccc(C(F)(F)F)c(F)c1` (racemic) [Example 126, (R/S)-2-(3-fluoro-4-(trifluoromethyl)phenyl)-N-((5-(3-methoxyphenyl)isoquinolin-8-yl)methyl)butanamide] gave a pIC50 of 6.43.

In the case of `COc1cccc(-c2ccc(CNC(=O)Cc3cccc(OC(F)(F)F)c3)c3cnccc23)c1` [Example 62, N-((5-(3-methoxyphenyl)isoquinolin-8-yl)methyl)-2-(3-(trifluoromethoxy)phenyl)acetamide], the pIC50 under setting [1] is 6.22.

`COc1cccc(-c2ccc(CNC(=O)[C@H](C)c3ccc(CC(C)C)cc3)c3cnccc23)c1` (racemic) [Example 146, (R/S)-2-(4-isobutylphenyl)-N-((5-(3-methoxyphenyl)isoquinolin-8-yl)methyl)propanamide] gave a pIC50 of 6.03.

Regarding `COc1cccc(-c2ccc(CNC(=O)Cc3ccccc3Oc3ccccc3)c3cnccc23)c1` [Example 55, N-((5-(3-methoxyphenyl)isoquinolin-8-yl)methyl)-2-(2-phenoxyphenyl)acetamide], the pIC50 under setting [1] is 6.51.

Consider `COc1cccc(-c2ccc(CNC(=O)Cc3ccc(OC(F)(F)F)cc3)c3cnccc23)c1` [Example 57, N-((5-(3-methoxyphenyl)isoquinolin-8-yl)methyl)-2-(4-(trifluoromethoxy)phenyl)acetamide], for which the pIC50 under setting [1] was 5.35.

`COc1cccc(-c2ccc(CNC(=O)C(C)c3ccc(OC(F)(F)F)cc3)c3cnccc23)c1` (stereo not shown) [Example 137, N-((5-(3-methoxyphenyl)isoquinolin-8-yl)methyl)-2-(4-(trifluoromethoxy)phenyl)propanamide]: under setting [1], the pIC50 is 6.32.

With `COc1cccc(-c2ccc(CNC(=O)Cc3cccc(Cl)c3)c3cnccc23)c1` [Example 54, 2-(3-chlorophenyl)-N-((5-(3-methoxyphenyl)isoquinolin-8-yl)methyl)acetamide], the pIC50 under setting [1] is 5.56.

Regarding `COc1cccc(-c2ccc(CNC(=O)Nc3ccc(F)cc3F)c3ncccc23)c1` [Example 170, 1-(2,4-difluorophenyl)-3-((5-(3-methoxyphenyl)quinolin-8-yl)methyl)urea], the pIC50 under setting [1] is 5.09.
